Measurements from the supplement of paper PMC8183993.
Structures can show the parent of a compound that is named as a salt.

How the values were obtained:
Settings in all cases: 24 h
U2OS [1] = experiment: nuclei count in HPG assay relative to DMSO (% of DMSO); higher = more viable cells
Protocol: (§1)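 Validation screen in U2OS cells: hits tested at 1, 3 and 10 uM for 24 h in duplicate plates. Translation was read by OPP incorporation (1 h pulse) and HPG incorporation (30 min in methionine-free medium), quantified by high-throughput microscopy alongside nuclei counts. All values are normalised to DMSO (= 100).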

U2OS [2] = experiment: nuclei count in OPP assay relative to DMSO (% of DMSO); higher = more viable cells
Protocol: as §1

U2OS [3] = experiment: mean HPG incorporation (global translation) relative to DMSO (% of DMSO); higher = more protein synthesis
Protocol: as §1

U2OS [4] = experiment: mean OPP incorporation (global translation) relative to DMSO (% of DMSO); higher = more protein synthesis
Protocol: as §1

| SMILES | nuclei count in HPG assay (U2OS [1]; 1 µM) | nuclei count in HPG assay (U2OS [1]; 3 µM) | nuclei count in HPG assay (U2OS [1]; 10 µM) | nuclei count in OPP assay (U2OS [2]; 1 µM) | nuclei count in OPP assay (U2OS [2]; 3 µM) | nuclei count in OPP assay (U2OS [2]; 10 µM) | mean HPG incorporation (U2OS [3]; 1 µM) | mean HPG incorporation (U2OS [3]; 3 µM) | mean HPG incorporation (U2OS [3]; 10 µM) | mean OPP incorporation (U2OS [4]; 1 µM) | mean OPP incorporation (U2OS [4]; 3 µM) | mean OPP incorporation (U2OS [4]; 10 µM) |
| --- | --- | --- | --- | --- | --- | --- | --- | --- | --- | --- | --- | --- |
| CC(C)n1nc(-c2ccc3oc(N)nc3c2)c2c(N)ncnc21 [INK 128 (MLN0128)] | 76 | 80.6 | 72.8 | 79.2 | 68.8 | 69.8 | 32.9 | 29.4 | 28.2 | 28.2 | 29.2 | 30 |
| Cc1ccc(NC(=O)c2ccc(CN3CCN(C)CC3)cc2)cc1Nc1nccc(-c2cccnc2)n1 [Imatinib (STI571)] | 102 | 97.7 | 92.4 | 97.6 | 97.7 | 95.9 | 91.5 | 111 | 121 | 113 | 122 | 131 |
| N#CC(c1ccnc(NCCc2cccnc2)n1)c1nc2ccccc2s1 (stereo unspecified) [JNK Inhibitor V] | 105 | 93.9 | 77 | 104 | 94.1 | 79.9 | 122 | 133 | 85.5 | 122 | 127 | 110 |
| O=[N+]([O-])c1ccccc1S(=O)(=O)NCC1CCC(CNCC2CCc3ccccc3C2)CC1 (stereo unspecified) [NTNCB hydrochloride] | 95.8 | 90.7 | 87.6 | 101 | 98.3 | 74.4 | 98 | 104 | 56.8 | 106 | 115 | 110 |
| Cn1cc(-c2ccc3ncc(Cc4ccc5ncccc5c4)n3n2)cn1 [NVP-BVU972] | 107 | 85.5 | 88.5 | 104 | 79.7 | 89.8 | 114 | 132 | 138 | 91 | 107 | 124 |
| Cc1cn(-c2cc(NC(=O)c3ccc(C)c(Nc4nccc(-c5cccnc5)n4)c3)cc(C(F)(F)F)c2)cn1 [Nilotinib (AMN-107)] | 101 | 91.3 | 98.5 | 96.6 | 94.2 | 80.2 | 95 | 93.5 | 92.5 | 112 | 120 | 116 |
| O=C(Nc1ccc(OC(F)(F)F)cc1)c1sccc1NCc1ccnc2ccccc12 [OSI-930] | 96.9 | 98.1 | 92 | 98 | 89.7 | 91.2 | 93.9 | 92.7 | 64.2 | 99.3 | 101 | 114 |
| Cc1cc(CS(=O)(=O)c2ccccc2)cc(OCc2ccc(CN3CCC[C@@H]3CO)cc2)c1 [PF-543] | 102 | 99.2 | 92.2 | 104 | 98.9 | 94.3 | 97.1 | 81.9 | 89.6 | 111 | 117 | 130 |
